Source: patent US20200297670A1, “Capsaicin Sequential Dosing Method for Treatment of Morton's Neuroma Pain” (Centrexion Therapeutics Corporation, priority 2016, published 2020)

Tested on: pain due to an intermetatarsal neuroma
Experiment: Average walking pain due to intermetatarsal neuroma on Numeric Pain Rating Scale (NPRS) after two injected doses of trans-capsaicin
Type: in vivo, human
Settings: for reduction in patients' reported average walking pain due to the intermetatarsal neuroma (NPRS): 27 adult human patients
Method: Twenty-seven adult, human patients experiencing pain due to an intermetatarsal neuroma were treated by administering a first dose of trans-capsaicin (200 μg of trans-capsaicin) and then, after at least 11 weeks, administered a second dose of trans-capsaicin (200 μg of trans-capsaicin). Patients rated their average walking pain due to the intermetatarsal neuroma on a Numeric Pain Rating Scale (NPRS), where pain is characterized by the patient on a scale of zero to ten (with zero being “no pain”, and ten being “worst possible pain”). Patients rated their average walking pain due to the intermetatarsal neuroma on (i) just prior to receiving the injection of trans-capsaicin and (ii) four (4) weeks after receiving each injection of trans-capsaicin. Patients reported a reduction in average walking pain due to the intermetatarsal neuroma when measured at four weeks after injection of trans-capsaicin for each administration of trans-capsaicin.
trans-Capsaicin was administered to twenty-seven (27) adult, human patients experiencing pain due to an intermetatarsal neuroma according to the procedures described below. Prior to administering the first dose of trans-capsaicin in this study, patients reported an average walking pain due to the intermetatarsal neuroma of at least four on the Numeric Pain Rating Scale (NPRS). Patients received two doses of trans-capsaicin.
trans-Capsaicin was injected in the amount of 200 μg per dose by ultrasound-guided needle placement into the area of the neuroma (but not inserting the needle into the intermetatarsal neuroma itself). The dose of trans-capsaicin was injected as a 2 mL solution containing trans-capsaicin at a concentration of 100 μg/mL. […]
Pain due to the intermetatarsal neuroma was evaluated by having patients rate their average walking pain due to the intermetatarsal neuroma on a Numeric Pain Rating Scale (NPRS), where pain is characterized by the patient on a scale of zero to ten (with zero being “no pain”, and ten being “worst possible pain”). […]

## COc1cc(CNC(=O)CCCCC=CC(C)C)ccc1O [trans-capsaicin, N-[(4-hydroxy-3-methoxyphenyl)methyl]-8-methylnon-6-enamide]
First dose 200 μg trans-capsaicin injected into area of neuroma, four weeks after injection vs prior to first dose
  reduction in patients' reported average walking pain due to the intermetatarsal neuroma (NPRS): 1.6 point
Second dose 200 μg trans-capsaicin (83 to 196 days after first dose), four weeks after injection vs just prior to second dose
  reduction in patients' reported average walking pain due to the intermetatarsal neuroma (NPRS): 2.3 point
Repeat injection, 200 μg per dose, adult human patients
  effect of repeat injection on pain due to an intermetatarsal neuroma: effective in ameliorating pain
